Source: patent US20150173358A1, “HERBICIDAL COMPOSITIONS CONTAINING IMAZAPIC, AMINOPYRALID AND OPTIONALLY METSULFURON” (DOW AGROSCIENCES LLC, priority 2013, published 2015)

Tested on: BOIVE: whitehead broom (Borerria verticillata)
Test: Postemergence herbicidal activity of mixtures in the field (visual weed control)
Type: in vivo
Experimental: Field trials were conducted in Brazil in pasture area cultivated with Brachiaria brizantha using standard herbicide small-plot research methodology. The plot size used was 3×8 meter (m; width×length) with 4 replicates per treatment. The pasture was grown using normal cultural practices for fertilization, management, and maintenance to ensure good growth of the crop and the weeds.
All treatments in the field trials were applied using a carbon dioxide (CO2) backpack air sprayer with flat fan nozzles (110.03°), calibrated to apply 250 liters per hectare (L/ha) spray volume at approximately 35 pounds per square inch (PSI). Formulations of aminopyralid (triisopropanolammonium salt) at 100 grams acid equivalent per hectare (g ae/ha) and aminopyralid (potassium salt, 525grams acid equivalent per kilogram (g ae/kg))+metsulfuron-methyl (94.5 grams active ingredient per kilogram (g ai/kg)) at 118 grams per hectare (g/ha) were mixed with imazapic at 70 and 140 g ae/ha and water+Joint Mineral Oil at appropriate formulated product rates to achieve the desired rates based on a unit area of application (hectare) as shown. Treatments were rated at 15 to 281 days after application (DAA) as compared to the untreated control plants. Visual weed control of BOIVE was scored on a scale of 0 to 100 percent where 0 corresponds to no injury and 100 corresponds to complete kill.
All treatment results, both for the single product and mixtures, are an average of 3 to 4 replicates and the tank-mix interactions are significant at the […] level.
Colby's equation was used to determine the herbicidal effects expected from the mixtures (Colby, S.R. Calculation of the synergistic and antagonistic response of herbicide combinations. Weeds 1967, 15, 20-22). […]
The experiments described herein in Table 2 were performed such that the “B” component in Colby's equation was the activity for the combination of aminopyralid and metsulfuron and only the activity for the combination was determined. […]

SMILES	% Visual Control BOIVE (281 DAA) Obs (Imazapic (ammonium salt) 70 g ae/ha alone, postemergence field trial, Brazil pasture) [%]	% Visual Control BOIVE (281 DAA) Obs (Imazapic (ammonium salt) 140 g ae/ha alone, postemergence field trial) [%]	% Visual Control BOIVE (281 DAA) Obs (Aminopyralid (triisopropanolammonium salt) 100 g ae/ha alone) [%]
Cc1cnc(C2=NC(C)(C(C)C)C(=O)N2)c(C(=O)O)c1 (racemic) [Imazapic, (±)-2-[4,5-dihydro-4-methyl-4-(1-methylethyl)-5-oxo-1H-imidazol-2-yl]-5-methyl-3-pyridinecarboxylic acid]	0	14	–
Nc1cc(Cl)nc(C(=O)O)c1Cl [Aminopyralid, 4-amino-3,6-dichloro-2-pyridinecarboxylic acid]	–	–	41
